The values below come from ChEMBL document CHEMBL1132058, “Potent inhibitors of protein farnesyltransferase: heteroarenes as cysteine replacements” (Bioorg Med Chem Lett, 1999).

For orientation: IC50 means the concentration at which inhibition is half-maximal. As a reminder, the Inhibition is the share of the control response that was lost under treatment. For orientation: EC50 means the concentration giving half of the maximal effect. Usually inhibition stands for the share of the control response that was lost under treatment. The term half-life denotes the time in which the quantity being followed falls by half. By bioavailability is commonly meant dose-corrected exposure relative to a reference, in per cent. By Cmax is commonly meant the peak of the concentration-time curve. As a reminder, the AUC is concentration integrated over time. The term Tmax denotes the time at which the peak concentration occurs.

Structures are written as SMILES. Bounds are passed on as bounds.

Data set [1] has as its target Protein farnesyltransferase (Homo sapiens, UniProt P49354+P49356). Kind of data set: Inhibitory activity against farnesyltransferase (FT) using SPA assay. In kind it is protein-complex assay.
Data set [2] has as its system NIH3T3. Put plainly: (§1) Inhibition of H-ras processing in subconfluent H-Ras-transformed NIH3T3 cells. The class given is functional, Mus musculus. Also on record: concentration or dose not given beside the values.
In data set [3] the test system is NIH3T3. Described as §1. In kind it is functional, Mus musculus.
Data set [4] relates to NIH3T3. The data set is described as §1. In kind it is functional, cell-based. Particulars: Mus musculus.
The subject of data set [5] is NIH3T3. Put plainly: Inhibition of H-ras processing in subconfluent H-Ras-transformed NIH3T3 cells at 1 uM. The class given is functional. The settings on record: Mus musculus.
The nature of data set [6]: Half life period in rat after IV administration at a dose of 10 mg/kg. The class given is ADME, organism-based. Also on record: dose 10 mg/kg, route intravenous. The settings on record: in vivo.
Data set [7] in a line: Half life period in dog after IV administration at a dose of 5 mg/kg. In kind it is ADME, organism-based, Canis lupus familiaris. Also on record: dose 5 mg/kg, route intravenous. Particulars: in vivo.
Data set [8] in a line: Bioavailability in rat after oral administration at a dose of 10 mg/kg. In kind it is ADME, organism-based. Particulars: in vivo.
Data set [9] can be described thus: Cmax value in rat after oral administration at a dose of 10 mg/kg. The class given is ADME, organism-based. Also on record: dose 10 mg/kg, route oral. Particulars: in vivo.
Data set [10] in a line: AUC value in dog after IV administration at a dose of 5 mg/kg. The settings on record: plasma. In kind it is ADME, organism-based, Canis lupus familiaris. Also on record: dose 5 mg/kg, route intravenous.
Data set [11] in a line: Bioavailability in dog after oral administration at a dose of 5 mg/kg. In kind it is ADME, organism-based, Canis lupus familiaris. The settings on record: in vivo.
The nature of data set [12]: AUC value in dog after oral administration at a dose of 5 mg/kg. The class given is ADME, organism-based, Canis lupus familiaris. Set-up: dose 5 mg/kg, route oral. Particulars: plasma.
The nature of data set [13]: Cmax value in dog after oral administration at a dose of 5 mg/kg. The class given is ADME, organism-based, Canis lupus familiaris. Also on record: dose 5 mg/kg, route oral. The settings on record: in vivo.
The nature of data set [14]: Tmax value in dog after oral administration at a dose of 5 mg/kg. In kind it is ADME, organism-based, Canis lupus familiaris. Also on record: dose 5 mg/kg, route oral. The settings on record: in vivo.
The nature of data set [15]: AUC value in rat after oral administration at a dose of 10 mg/kg. The class given is ADME, organism-based. Set-up: dose 10 mg/kg, route oral. The settings on record: plasma.
Data set [16] in a line: AUC value in rat after IV administration at a dose of 10 mg/kg. Set-up: dose 10 mg/kg, route intravenous. In kind it is ADME, organism-based. The settings on record: plasma.
Data set [17] is described as follows: Tmax value in rat after oral administration at a dose of 10 mg/kg. In kind it is ADME, organism-based. Set-up: dose 10 mg/kg, route oral. The settings on record: in vivo.

The compound `CSCC[C@H](NC(=O)c1ccc(/C(C#N)=C/c2cccnc2)cc1-c1ccccc1C)C(=O)O` gave an IC50 in data set [1] of 0.59 nM. The same compound came in with an Inhibition in the data set on NIH3T3 [2] of 57%.
For `COc1ccncc1/C=C/c1ccc(C(=O)N[C@@H](CCSC)C(=O)O)c(-c2ccccc2C)c1` the same measures were 2.9 nM and 66%.
`CSCC[C@H](NC(=O)c1ccc(/C=C/c2cnccc2C(O)c2ccccc2)cc1-c1ccccc1C)C(=O)O` (stereo partly specified): the IC50 in data set [1] turned out to be 0.58 nM. This compound displayed an Inhibition in the data set on NIH3T3 [3] of 67%.
For `CSCC[C@H](NC(=O)c1ccc(/C=C/n2ccnc2)cc1-c1ccccc1C)C(=O)O`, in data set [1], the IC50 came out at 0.2 nM. This compound yielded a concentration giving a half-maximal response (EC50) in the data set on NIH3T3 [4] of over 1000 nM.
The compound `CSCC[C@H](NC(=O)c1ccc(CCn2ccnc2)cc1-c1ccccc1C)C(=O)O` yielded an IC50 in data set [1] of 0.21 nM. In the data set on NIH3T3 [4], the EC50 was over 1000 nM.
For `CSCC[C@H](NC(=O)c1ccc(/C=C/c2cnc3ccccc3c2)cc1-c1ccccc1C)C(=O)O`, the half-inhibitory concentration (IC50) in [1] stood at 16 nM. The compound further registered an EC50 in the data set with NIH3T3 [4] of over 1000 nM.
Compound `CSCC[C@H](NC(=O)c1ccc(/C=C/c2cnccn2)cc1-c1ccccc1C)C(=O)O` registered an IC50 in data set [1] of 57 nM.
On to `CSCC[C@H](NC(=O)c1ccc(/C(=C\c2cccnc2)C(=O)OC(C)(C)C)cc1-c1ccccc1C)C(=O)O`, for which the IC50 in data set [1] amounted to 15 nM. In addition, the Inhibition in the data set with NIH3T3 [2] is on record as 35%.
Consider `CSCC[C@H](NC(=O)c1ccc(/C=C/c2cnccc2C(O)(c2ccccc2)c2ccccc2)cc1-c1ccccc1C)C(=O)O`, for which half-maximal inhibition in [1] (IC50) required 0.66 nM. The same compound showed an Inhibition in the data set with NIH3T3 [3] of 63%.
For `CSCC[C@H](NC(=O)c1ccc(C#Cc2cncnc2)cc1-c1ccccc1C)C(=O)O`, the IC50 in data set [1] is 140 nM.
For `CSCC[C@H](NC(=O)c1ccc(/C=C/c2cnccc2O)cc1-c1ccccc1C)C(=O)O`, the IC50 in data set [1] came out at 0.29 nM. The compound also showed an Inhibition with NIH3T3 [2] of 75%.
Turning to `CSCC[C@H](NC(=O)c1ccc(/C=C/c2cncnc2)cc1-c1ccccc1C)C(=O)O`, the IC50 in data set [1] was determined as 25 nM.
In [1], `CSCC[C@H](NC(=O)c1ccc(/C=C/c2cncs2)cc1-c1ccccc1C)C(=O)O` came in with an IC50 of 2.4 nM. Also, in the data set with NIH3T3 [4], the EC50 was over 1000 nM.
The like results for `CSCC[C@H](NC(=O)c1ccc(CCc2c[nH]cn2)cc1-c1ccccc1C)C(=O)O` were, in that order, 0.15 nM and over 1000 nM.
The compound `CSCC[C@H](NC(=O)c1ccc(/C=C/c2ccc(Oc3ccccc3)nc2)cc1-c1ccccc1C)C(=O)O` yielded an IC50 in data set [1] of 26 nM.
Turning to `CSCC[C@H](NC(=O)c1ccc(/C=C/c2cnccc2C2(O)CCCCC2)cc1-c1ccccc1C)C(=O)O`, the IC50 in [1] was determined as 0.81 nM. The compound also had an Inhibition in the data set with NIH3T3 [2] of 74%.
Turning to `CSCC[C@H](NC(=O)c1ccc(/C=C/c2cnccc2C(=O)c2ccccc2)cc1-c1ccccc1C)C(=O)O`, inhibition in data set [1] was half-maximal at 0.92 nM (IC50). This compound also showed an EC50 in the data set with NIH3T3 [4] of 1000 nM.
The compound `CSCC[C@H](NC(=O)c1ccc(/C=C/c2cncc3ccccc23)cc1-c1ccccc1C)C(=O)O` came in with an IC50 in [1] of 0.8 nM. The compound also registered an inhibition at 1 µM in the data set with NIH3T3 [5] of 64%.
In turn, `CSCC[C@H](NC(=O)c1ccc(/C(C#N)=C\c2cccnc2)cc1-c1ccccc1C)C(=O)O` displayed an IC50 in [1] of 3.6 nM. Moreover, in the data set on NIH3T3 [2], the Inhibition is 60%.
The compound `CSCC[C@H](NC(=O)c1ccc(/C=C/c2cnccc2OCc2cc(F)cc(F)c2)cc1-c1ccccc1C)C(=O)O` gave an IC50 in data set [1] of 0.3 nM.
On to `CCCOc1ccncc1/C=C/c1ccc(C(=O)N[C@@H](CCSC)C(=O)O)c(-c2ccccc2C)c1`, for which, in data set [1], the IC50 turned out to be 1.4 nM. Also, in the data set with NIH3T3 [2], the Inhibition is 49%.
Compound `CSCC[C@H](NC(=O)c1ccc(/C(=C/c2cccnc2)C(=O)OC(C)(C)C)cc1-c1ccccc1C)C(=O)O` came in with a 50% inhibitory concentration (IC50) in data set [1] of 0.91 nM. This compound came in with an Inhibition in the data set with NIH3T3 [2] of 80%.
In data set [1], `CSCC[C@H](NC(=O)c1ccc(COc2cccnc2)cc1-c1ccccc1C)C(=O)O` came in with an IC50 of 0.4 nM.
Turning to `CSCC[C@H](NC(=O)c1ccc(/C=C/c2cnccc2C(O)[C@]23C[C@H]4C[C@H](C[C@H](C4)C2)C3)cc1-c1ccccc1C)C(=O)O` (stereo partly specified), the IC50 in data set [1] came out at 0.37 nM. In the data set with NIH3T3 [2], the Inhibition is recorded as 61%.
`CSCC[C@H](NC(=O)c1ccc(/C=C/c2cncc(Cc3ccccc3)c2)cc1-c1ccccc1C)C(=O)O` showed a 50% inhibitory concentration (IC50) in data set [1] of 4.7 nM. For the same compound, the EC50 in the data set on NIH3T3 [4] was over 1000 nM.
As to `CSCC[C@H](NC(=O)c1ccc(/C=C/c2cccnc2)cc1-c1ccccc1C)C(=O)O`, the figures for the half-life in data set [6] and in [7] were 129 min and 33 min, respectively. This compound also registered an IC50 in data set [1] of 0.61 nM. The bioavailability stood at 23% in [8] and 24.5% in data set [11]. Also, the maximum concentration (Cmax) in data set [9] was found to be 321 ng/mL; in data set [13], 2830 ng/mL. In addition, the Inhibition in the data set on NIH3T3 [3] was 79%. Besides, the AUC is 10500 ng·h/mL in data set [10], 2560 ng·h/mL in data set [12], 870 ng·h/mL in [15] and 6660 ng·h/mL in data set [16]. Further, the Tmax in [14] was found to be 22.8 min; in data set [17], 19.8 min.
Turning to `CSCC[C@H](NC(=O)c1ccc(/C=C/c2c[nH]cn2)cc1-c1ccccc1C)C(=O)O`, the IC50 in [1] is 0.63 nM. Besides, in the data set with NIH3T3 [4], the EC50 was over 1000 nM.
The compound `CSCC[C@H](NC(=O)c1ccc(C#Cc2cccnc2)cc1-c1ccccc1C)C(=O)O` yielded an IC50 in data set [1] of 2.7 nM. Also, the EC50 with NIH3T3 [4] stood at 1000 nM.
In turn, `CSCC[C@H](NC(=O)c1ccc(/C=C/c2cncc(-c3ccccc3)c2)cc1-c1ccccc1C)C(=O)O` showed a half-maximal inhibitory concentration (IC50) in data set [1] of 12 nM.
`CSCC[C@H](NC(=O)c1ccc(/C=C/c2cnccc2C(O)C2CCCCC2)cc1-c1ccccc1C)C(=O)O` (stereo partly specified) returned an IC50 in [1] of 0.54 nM. The compound further yielded an Inhibition in the data set with NIH3T3 [2] of 63%.
`CSCC[C@H](NC(=O)c1ccc(CCc2cccnc2)cc1-c1ccccc1C)C(=O)O` came in with an IC50 in data set [1] of 2.1 nM.
The compound `CSCC[C@H](NC(=O)c1ccc(/C=C/c2cnccc2Cl)cc1-c1ccccc1C)C(=O)O` had an IC50 in [1] of 0.29 nM. Also, in the data set with NIH3T3 [2], the Inhibition is 60%.
`CSCC[C@H](NC(=O)c1ccc(/C=C/c2cnccc2C(=O)[C@]23C[C@H]4C[C@H](C[C@H](C4)C2)C3)cc1-c1ccccc1C)C(=O)O` registered an IC50 in data set [1] of 0.12 nM. In the data set with NIH3T3 [2], this compound showed an Inhibition of 74%.
In the data set with NIH3T3 [4], `CSCC[C@H](NC(=O)c1ccc(NC[C@@H](N)CS)cc1-c1ccccc1)C(=O)O` came in with an EC50 of 1000 nM.
